The source of these data is patent US11517575B2, “Use of minaprine to reduce tumor growth” (Institut Gustave-Roussy, priority 2019, dated 2022).

One experiment relates to CT26 cells. Kind of experiment: Anti-tumor vaccination assay, CT26 cells in BALB/c mice. The format is in vivo, mouse. The note with it: 8 Gy + 10 μM compound 24 h. As to the method:
(§1) FIG. 5. Identification of cannibalism modulators as immunogenic cell death inducers. MCA205 (A) or CT26 (E, I, M, Q) cells were treated with the indicated drugs. After 24 h of coculture with the indicated treatment, cell death was monitored by staining DiOC6(3) and PI, and the percentage of dying (DiOC6(3)^low PI^−, open bars) and dead (DiOC6(3)^low PI^+, closed bars) cells was determined by cytofluorometry. (B-D) MCA205 cells or (F-H, J-L, N-P, R-T) CT26 cells cocultured after x irradiation with the indicated compounds were inoculated subcutaneously into the right flank of […] or BALB/c mice, respectively. Seven days later, the mice were rechallenged with live cells injected into the opposite flank, and tumor growth was monitored (five mice per group).
FIG. 6. Tumor vaccination experiments. CT26 cells were treated for 24 hours with 10 μM VP331 (A, F, K), 10 μM Minaprine (B, G, L), 10 μM Lopa87 (C, H, M), 10 μM SG6163F (D, I, N), 10 μM Azaguanine-8 (8-aza) (E, J, O) alone or combined with 8 Gy ionizing radiation and inoculated (s.c.) into immunocompetent BALB/c mice, which were rechallenged at the opposite flank 7 days later with the same cancer cells. The percentage of tumor-free mice was evaluated three times a week for the following 38 days. Percentage of total tumor free mice (A-E), tumor free-mice at the first injection site (F to J, P) or at the second injection site (K to O, Q) are shown. (*P<0.05, **P<0.01, ***P<0.001, two-way ANOVA).
The combination of IRCCE with IR induces efficient antitumor immunity. Considering that immunogenic cell death (ICD) inducers were identified (such as Digoxin, Digitoxin, Lanatoside C or Doxorubicin hydrochloride)^3, 4, 48-51) as IRCCE, the ability of these compounds to induce an antitumor immunity after radiotherapy was evaluated. First, a preclinical approaches was developed to study the immunological effects of IRCCE on two mouse models of carcinoma (colon CT26 carcinoma and fibrosarcoma MCA205). Initially, the ability of the combination of IRCCE+IR to trigger a specific anti-tumor immune response was appreciated using immunocompetent mice through anti-tumor vaccination assays. According to previously published studies^52, the injection of cancer cells succumbing to an immunogenic cell death (ICD) into immunocompetent mice must elicit a protective immune response that is specific for tumor antigens. Thus, 3×10^5 MCA205 cells were first treated with 10 μM of SG6163F for 24 hours. Then, treated cells were inoculated subcutaneously in 200 μl PBS into the lower flank of 8-week-old female C57BL/6 mice. One week later, 3×10^4 untreated control cells were inoculated into the contralateral flank of mice. Tumors were evaluated weekly using a common caliper. Animals bearing tumors that exceeded 20-25% body mass were euthanatized. […] Then, 3×10^6 CT26 cells were irradiated with 8 Gy in presence of 10 μM of SG6163F (FIGS. 5E and 5F), VP331 (FIGS. 5I and 5J), Minaprine dihydrochloride (FIGS. 5M and 5N) or LOPA87 (FIGS. 5Q and 5R) for 24 hours. Then, cells were inoculated as previously described subcutaneously in […] into the lower flank of 8-week-old female BALB/c mice. One week later, 5×10^5 untreated control cells were inoculated into the contralateral flank of mice and tumors were evaluated weekly using a common caliper. As previously mentioned, animals bearing tumors that exceeded 20-25% body mass were euthanatized. The percentage of dying cells in each condition was evaluated by determining with DiOC(6)3/IP staining (FIGS. 5E, 5I, 5M and 5Q). Finally, the ability of these compounds to repress the growth of cancer cells that have been injected 7 days after injection of irradiated and treated cancer cells was appreciated.
A second anti-tumor vaccination assay was done on CT26 mouse models of carcinoma as previously described. […]

The subject of experiment [1] is MCA205 cells. Description: Cell death of treated MCA205 cells (DiOC6(3)/PI cytofluorometry). The format is cell-based, mouse. The note with it: 10 μM compound alone, 24 h. The procedure:
as §1
(§2) The combination of IRCCE with IR induces efficient antitumor immunity. Considering that immunogenic cell death (ICD) inducers were identified (such as Digoxin, Digitoxin, Lanatoside C or Doxorubicin hydrochloride)^3, 4, 48-51) as IRCCE, the ability of these compounds to induce an antitumor immunity after radiotherapy was evaluated. […] Tumors were evaluated weekly using a common caliper. […] One week later, 5×10^5 untreated control cells were inoculated into the contralateral flank of mice and tumors were evaluated weekly using a common caliper. […]

The test system of the next experiment is HCT116 cells. Kind of experiment: Screening of chemical libraries for IR-mediated cellular cannibalism (imaging flow cytometry, confocal validation). The note with it: 8 Gy irradiated HCT116 cells, 10 μM compound, 24 h culture. The format is cell-based, human. The procedure:
FIG. 4 Identification of cannibalism modulators triggered by ionizing radiation. Compounds from the Prestwick (A) and CEA (F) libraries were tested for their capacities to induce cellular cannibalism after ionizing radiation. Cannibal cells were detected after homotypic cultures of 8 gray γ-irradiation HCT116 cells in the presence or absence of 10 μM of the Prestwick (A) and CEA […] library compounds. Each dot represents one compound. Representative images are shown in (B, G). (C, H) HCT116 cells were treated with the indicated drugs. After 24 h of treatment, cell death was monitored by staining with 3,3 dihexyloxacarbocyanine iodide (DiOC6(3)) and PI^+, and the percentage of dying (DiOC6(3)^low PI^−, open bars) and dead (DiOC6(3)^low PI^+, closed bars) cells was determined by cytofluorometry. Validation of the cannibalism inducers by fluorescent microscopy. Representative images (D, I) and quantification (E, J) are shown. Results are means s.e.m. of triplicate determinations.
Untreated HCT116 cells were labeled with CMFDA (green fluorescence, CMFDA^+) or CMTMR, (red fluorescence, CMTMR) and treated HCT116 cells with CMFDA (green fluorescence, CMFDA^+). The following cell mixtures were performed: untreated CMTMR^+ HCT116 cells were mixed with untreated CMFDA^+ HCT116 cells, or untreated CMTMR^+ HCT116 cells were mixed with treated CMFDA^+ HCT116 cells. Then, cells were co-cultured during 24 hours in the presence or absence of the pharmacological inhibitor of ROCK, Y27632 (30 μM), the pan-caspase inhibitor, Z-VAD-fmk (ZVAD, 100 μM), the inhibitor of caspase-1, Ac-YVAD-cmk (YVAD, 100 μM), the necroptosis inhibitor, Necrostatin-1 (NEC1, 30 μM), the inhibitor of the vacuolar type H(+)-ATPase (V-ATPase) inhibiting autophagy, Bafilomycin A1 (BafA1, 50 nM), the inhibitor of Cdks with an anti-mitotic activity, Roscovitine (Rosco, 10 μM). After 24 hours of co-culture, both detached and adherent cells were collected and stained with Hoechst […] (10 μg/mL) during 1 hour at 37° C. in warmed complete medium. To detect phosphatidylserine (PS) exposure and plasma membrane permeability, labeled HCT116 cells were successively incubated with Biotin-AnnexinV (BD Pharmingen) as recommended by manufacturer, […] BV786-Streptavidin (BD Biosciences) and 3 μM DRAQ7 (BioStatus) during 15 minutes at 25° C. After washing with PBS solution, samples were immediately analyzed using an imaging flow cytometer FlowSight® (Amnis®, part of EMD Millipore). Data were acquired at a 20× magnification, using INSPIRE software. The 405 nm, 488 nm, and 561 nm lasers were used for excitation. Brightfield, Annexin V-BV786, DRAQ7, CMFDA, CMTMR and Hoechst […] stainings were detected using respectively channels for 420-480 nm, 745-800 nm, 642-745 nm, 480-560 nm, 595-642 nm and 430-505 nm. At least 1000 events of cells per sample were analyzed. Additional single-labeled controls were prepared to normalize fluorescent signal across different channels. Acquired data were analyzed using the IDEAS analysis software (v6.1; Merck-Millipore). Gating strategy was the following. Cells were gated for focused cells using the Gradient RMS feature. Cells were gated for single cells using the aspect ratio and area features. For the cannibalism detection, cells were gated in the double positive CMFDA^+ and CMTMR^+ staining.
To detect PS exposure, plasma membrane permeability and cell cycle progression, cells were after co-culture sequentially labeled with specific fluorescent probes (such as FITC-conjugated AnnexinV, propidium iodide, and Hoechst 33342) and analyzed by flow cytometry. Both detached and adherent cells were collected and stained with Hoechst […] (10 μg/ml) during 1 hour at 37° C. in warmed complete medium. After washing with PBS, HCT116 cells were suspended in 1× binding buffer supplemented with fluorescein isothiocyanate (FITC)-conjugated Annexin V (BD Biosciences) and propidium iodide (PI, 1 μg/mL) (Sigma), as per manufacturer's instructions. […]
Background: In flow cytometry, cells or beads pass a laser one at a time.

Experiment [2] deals with MCA205 cells. Description: Anti-tumor vaccination assay, MCA205 cells in C57BL/6 mice. The note with it: rechallenge one week later. The format is in vivo, mouse. The procedure: as §1, §2

As to `O=C1NC(c2ccccc2)=N/C1=C\c1cc2ccccc2c2ccccc12` [SG6163F], the “frequency of mice showing a protective response” value is listed as “significant increase in the frequency of mice showing a protective response” in the experiment with CT26 cells (first assay: CT26 cells, rechallenge one week later) and “Significant increases in the frequency of mice showing a protective response” in the experiment on CT26 cells (second assay: CT26 cells, rechallenge 7 days later). For the same compound, the “increase of cell death in vitro” value in the experiment on MCA205 cells [1] is listed as “not able to induce a significant increase of cell death”. The “enhancement of IR-mediated cellular cannibalism” value in the experiment on HCT116 cells is listed as “efficient cellular cannibalism enhancer”. Besides, the “protective response after inoculation of untreated cells” value in the experiment with MCA205 cells [2] (MCA205 cells treated with 10 μM compound alone, s.c. in C57BL/6 mice) was “did not exhibit a protective response”. Besides, the “mice with protective response” value with MCA205 cells [2] (MCA205 cells treated with 8 Gy of IR and 10 μM compound, C57BL/6 mice) was 3 of 5.
